Results published in patent publication US12180192B2, “Modulators of THR-β and methods of use thereof” (ALIGOS THERAPEUTICS, INC., priority 2019, dated 2024).

Columns and labels:
[1] = molecular target: T1, human thyroid receptor alpha ligand-binding domain (LBD) (Homo sapiens, UniProt P10827); test: TR-FRET thyroid receptor alpha coactivator assay (THR biochemical assay, Assay 1); conditions: for EC50: Table 4, THR-alpha, read-out: Activity category Assay 1 (EC50, THR-alpha agonist activity); for Emax / Activity category Assay 1 THRα (Emax): Table 5, THRα; for Emax: read-out: Activity category Assay 1 THRα (Emax)
T1 construct: purchased Invitrogen
How it was run: (§1)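 GST-tagged human TRβ or TRα LBD, 1 nM final (stated for β), with fluorescein-SRC2-2 coactivator peptide (200 nM) and Tb-anti-GST antibody (2 nM). Agonists serially diluted, 1% DMSO final. 1 h incubation at rt in the dark; TR-FRET read as rise in fluorescein and drop in terbium emission.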

[2] = molecular target: T2, human thyroid receptor beta ligand-binding domain (LBD) (Homo sapiens, UniProt P10828); test: TR-FRET thyroid receptor beta coactivator assay (THR biochemical assay, Assay 1); conditions: for EC50: THR-beta, TR-FRET coactivator assay, read-out: Activity category Assay 1 (EC50, THR-beta agonist); for Emax / Activity category Assay 1 THRβ (Emax): Table 5, Assay 1, THRβ; for Emax: read-out: Activity category Assay 1 THRβ (Emax)
T2 construct: purchased Invitrogen
T2 sequence (P10828 217-461 limits assumed): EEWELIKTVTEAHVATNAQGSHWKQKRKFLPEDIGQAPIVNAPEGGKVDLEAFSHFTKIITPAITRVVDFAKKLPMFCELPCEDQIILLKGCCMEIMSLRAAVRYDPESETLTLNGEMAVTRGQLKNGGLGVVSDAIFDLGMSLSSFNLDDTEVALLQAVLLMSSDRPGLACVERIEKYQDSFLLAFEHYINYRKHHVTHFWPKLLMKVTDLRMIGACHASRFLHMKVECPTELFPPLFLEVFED
How it was run: as §1

T1 sequence (P10827 163-410 isoform P10827-2 limits assumed, other chains not shown): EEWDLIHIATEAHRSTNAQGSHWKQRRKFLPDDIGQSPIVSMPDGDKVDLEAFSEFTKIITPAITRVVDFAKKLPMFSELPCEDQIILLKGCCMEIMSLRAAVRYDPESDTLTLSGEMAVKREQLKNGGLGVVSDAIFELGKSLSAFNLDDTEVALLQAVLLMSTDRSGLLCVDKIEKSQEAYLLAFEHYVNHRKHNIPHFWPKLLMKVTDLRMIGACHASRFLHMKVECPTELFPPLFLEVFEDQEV

Row | SMILES | EC50 [1] [nM] | Emax [1] [%] | EC50 [2] [nM] | Emax [2] [%] | Activity category Assay 1 THRα (Emax) [1] | Activity category Assay 1 THRβ (Emax) [2]
1 | CC(C)c1c[nH]c2ccc(Oc3c(Cl)cc(-n4nc(C#N)c(=O)[nH]c4=O)cc3Cl)cc12 [Compound 1, 2-[3,5-dichloro-4-[(3-isopropyl-1H-indol-5-yl)oxy]-phenyl]-3,5-dioxo-4H-1,2,4-tri-azine-6-carbonitrile] | < 50 | < 50 | < 50 | 50 to 75 |  | 
2 | CC(C)c1n[nH]c2nnc(Oc3c(Cl)cc(-n4nc(C#N)c(=O)[nH]c4=O)cc3Cl)cc12 [Compound 75A, 2-(3,5-Dichloro-4-((3-isopropyl-1H-pyrazolo[3,4-c]pyridazin-5-yl)oxy)phenyl)-3,5-dioxo-2,3,4,5-tetrahydro-1,2,4-triazine-6-carbonitrile] | 50 to 250 | < 50 | < 50 | 50 to 75 |  | 
3 | Nc1nn(-c2cc(Cl)c(Oc3cc(C4Cc5ccccc54)c(=O)[nH]n3)c(Cl)c2)c(=O)[nH]c1=O (stereo not shown) [Compound 158] | 250 to 1000 | < 50 | < 50 | < 50 |  | 
4 | CC(C)Nc1n[nH]c2ccc(Oc3c(Cl)cc(-n4nc(C#N)c(=O)[nH]c4=O)cc3Cl)cc12 [Compound 145, 2-(3,5-dichloro-4-((3-(isopropylamino)-1H-indazol-5-yl)oxy)phenyl)-3,5-dioxo-2,3,4,5-tetrahydro-1,2,4-triazine-6-carbonitrile] | < 50 | 50 to 75 | < 50 | < 50 |  | 
5 | CC(c1ccccc1)c1cc(Oc2c(Cl)cc(-n3nc(N)c(=O)[nH]c3=O)cc2Cl)n[nH]c1=O (single isomer, unassigned) [Compound 164, 6-Amino-2-(3,5-dichloro-4-((6-oxo-5-(1-phenylethyl)-1,6-dihydropyridazin-3-yl)oxy)phenyl)-1,2,4-triazine-3,5(2H,4H)-dione] | 50 to 250 |  | < 50 |  | C (Emax<50%) | C (Emax<50%)
6 | CC(c1cc(Oc2c(Cl)cc(-n3nc(N)c(=O)[nH]c3=O)cc2Cl)n[nH]c1=O)C1CC(F)(F)C1 (single isomer, unassigned) [Compound 61-A, 6-amino-2-[3,5-dichloro-4-([5-[1-(3,3-difluorocyclobutyl)ethyl]-6-oxo-1H-pyridazin-3-yl]oxy)phenyl]-4H-1,2,4-tri-azine-3,5-dione] | 50 to 250 | 50 to 75 | < 50 | 50 to 75 |  | 
7 | CC(C)c1c[nH]c2ccc(Oc3c(Cl)cc(-n4nc(C#N)c(=O)[nH]c4=O)cc3Cl)nc12 [Compound 18] | > 25000 | < 50 | < 50 | < 50 |  | 
8 | Nc1nn(-c2cc(Cl)c(Oc3cc(-c4ccc5c(c4)CCCO5)c(=O)[nH]n3)c(Cl)c2)c(=O)[nH]c1=O [Compound 114] | > 25000 | < 50 | 50 to 250 | < 50 |  | 
9 | Nc1nn(-c2cc(Cl)c(Oc3cc(C4CC5(CC5)C4)c(=O)[nH]n3)c(Cl)c2)c(=O)[nH]c1=O [Compound 93] | 250 to 1000 | < 50 | 50 to 250 | < 50 |  | 
10 | CC(c1cc(Oc2c(Cl)cc(-n3nc(N)c(=O)[nH]c3=O)cc2Cl)n[nH]c1=O)C1CC(F)(F)C1 (single isomer, unassigned) [Compound 61-B, 6-amino-2-[3,5-dichloro-4-([5-[1-(3,3-difluorocyclobutyl)ethyl]-6-oxo-1H-pyridazin-3-yl]oxy)phenyl]-4H-1,2,4-tri-azine-3,5-dione] | 1000 to 25000 |  | 50 to 250 |  | C (Emax<50%) | C (Emax<50%)
